Test results taken from patent US20140135270A1, “MACROCYCLIC COMPOUNDS FOR INHIBITION OF INHIBITORS OF APOPTOSIS” (Ensemble Therapeutics Corp., priority 2012, published 2014).

Columns and labels:
His-BIR3 (241-356, XIAP) = molecular target: T1, His-BIR3 (241-356, XIAP) (Homo sapiens, UniProt P98170); experiment: XIAP-BIR3/SMAC Homogeneous Time Resolved Fluorescence (HTRF) Assay; format: binding; settings: fluorescein labeled SMAC peptide
T1 construct: additions of His-BIR3 (241-356, XIAP), fluorescein labeled SMAC peptide
T1 sequence (P98170 241-356): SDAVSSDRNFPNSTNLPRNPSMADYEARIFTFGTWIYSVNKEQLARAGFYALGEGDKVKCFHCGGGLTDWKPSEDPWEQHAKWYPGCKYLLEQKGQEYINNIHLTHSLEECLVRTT

[1] = molecular target: T2, His-BIR2-3 (125-356, C202A/C213G, XIAP) (Homo sapiens, UniProt P98170, C202A/C213G); experiment: XIAP-BIR2-3 Dimeric SMAC Peptide Homogeneous Time Resolved Fluorescence (HTRF) Assay; format: binding; settings: fluorescein labeled dimeric SMAC peptide
T2 construct: additions of His-BIR2-3 (125-356, C202A/C213G, XIAP), fluorescein labeled dimeric SMAC peptide
T2 sequence (P98170 125-356 C202A/C213G): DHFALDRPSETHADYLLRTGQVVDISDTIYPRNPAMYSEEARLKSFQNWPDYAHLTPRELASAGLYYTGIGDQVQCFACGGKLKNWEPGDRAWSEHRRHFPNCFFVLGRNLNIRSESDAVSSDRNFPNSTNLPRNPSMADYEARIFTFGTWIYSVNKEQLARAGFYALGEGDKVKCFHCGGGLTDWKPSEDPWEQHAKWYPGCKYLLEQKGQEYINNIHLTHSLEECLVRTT

IC50 (His-BIR3 (241-356, XIAP)) [nM] | IC50 [1] [nM] | SMILES
30.8 | 20.1 | CN[C@@H](C)C(=O)N[C@H](C(=O)N1C[C@@H]2C[C@H]1C(=O)N[C@@H](Cc1ccc3ccccc3c1)C(=O)N[C@H](C(=O)O)Cc1ccc(cc1)OC/C=C/CO[C@H]1C[C@@H](C(=O)N[C@@H](Cc3cccc(-c4cccnc4)c3)C(=O)N[C@H](C(=O)NS(=O)(=O)C3CC3)Cc3ccc(cc3)OCc3cn2nn3)N(C(=O)[C@@H](NC(=O)[C@H](C)NC)C(C)(C)C)C1)C(C)(C)C [Example 116]
5.8 | 2.1 | CNC(C)C(=O)NC(C(=O)N1CC2CC1C(=O)NC(Cc1ccc3ccccc3c1)C(=O)NC(C(=O)O)Cc1ccc(cc1)OCC=CCOC1CC(C(=O)NC(Cc3ccc4ccccc4c3)C(=O)NC(C(=O)O)CCCCC(=O)N2)N(C(=O)C(NC(=O)C(C)NC)C(C)(C)C)C1)C(C)(C)C (stereo not drawn) [Example 31]
757 | 138 | CN[C@@H](C)C(=O)N[C@@H](CC(=O)O)C(=O)N1C[C@@H]2C[C@H]1C(=O)N[C@@H](Cc1ccc3ccccc3c1)C(=O)N[C@H](C(=O)O)CCC(=O)N[C@H]1C[C@@H](C(=O)N[C@@H](Cc3ccc4ccccc4c3)C(=O)N[C@H](C(=O)O)Cc3ccc(cc3)OC/C=C/CO2)N(C(=O)[C@@H](NC(=O)[C@H](C)NC)C(C)(C)C)C1 [Example 58]
2.4 | 3.7 | CN[C@@H](C)C(=O)N[C@H](C(=O)N1C[C@@H]2C[C@H]1C(=O)NC(Cc1ccc3ccccc3c1)C(=O)N[C@H](C(=O)O)Cc1ccc(cc1)OCCCC[C@H]1C[C@@H](C(=O)N[C@@H](Cc3ccc4ccccc4c3)C(=O)N[C@H](c3nnn[nH]3)Cc3ccc(cc3)OCc3cn2nn3)N(C(=O)[C@@H](NC(=O)[C@H](C)NC)C(C)(C)C)C1)C(C)(C)C (stereo partly drawn) [Example 99]
61 | 4.8 | CN[C@@H](C)C(=O)N[C@H](C(=O)N1C[C@@H]2C[C@H]1C(=O)N[C@@H](Cc1ccc3ccccc3c1)C(=O)N[C@H](C(=O)O)Cc1ccc(cc1)OC/C=C/CO[C@H]1C[C@@H](C(=O)N[C@@H](c3ccccc3)C(=O)N[C@H](C(=O)O)Cc3ccc(cc3)C(=O)N2)N(C(=O)[C@@H](NC(=O)[C@H](C)NC)C(C)(C)C)C1)C(C)(C)C [Example 51]
17.6 | 2.6 | CN[C@@H](C)C(=O)N[C@H](C(=O)N1C[C@@H]2C[C@H]1C(=O)N[C@@H](Cc1ccc3ccccc3c1)C(=O)N[C@H](C(=O)O)Cc1ccc(cc1)OC/C=C/CO[C@H]1C[C@@H](C(=O)N[C@@H](Cc3ccc(-c4ccccc4)cc3)C(=O)N[C@H](C(=O)O)Cc3ccc(cc3)C(=O)N2)N(C(=O)[C@@H](NC(=O)[C@H](C)NC)C(C)(C)C)C1)C(C)(C)C [Example 48]
0.9 | 0.2 | CN[C@@H](C)C(=O)N[C@H](C(=O)N1C[C@H]2C/C=C/COc3ccc(cc3)C[C@@H](C(=O)NS(=O)(=O)C3CC3)NC(=O)[C@H](Cc3ccc4ccccc4c3)NC(=O)[C@@H]3C[C@@H](CN3C(=O)[C@@H](NC(=O)[C@H](C)NC)C(C)(C)C)n3cc(nn3)COc3ccc(cc3)C[C@@H](C(=O)O)NC(=O)[C@H](Cc3ccc4ccccc4c3)NC(=O)[C@@H]1C2)C(C)(C)C [Example 25]
105 | 8.7 | CN[C@@H](C)C(=O)N[C@H](C(=O)N1C[C@@H]2C[C@H]1C(=O)N[C@@H](Cc1ccc3ccccc3c1)C(=O)N[C@H](C(=O)O)Cc1ccc(cc1)OC/C=C/CO[C@H]1C[C@@H](C(=O)N[C@@H](C(c3ccccc3)c3ccccc3)C(=O)N[C@H](C(=O)NS(=O)(=O)C3CC3)Cc3ccc(cc3)OCc3cn2nn3)N(C(=O)[C@@H](NC(=O)[C@H](C)NC)C(C)(C)C)C1)C(C)(C)C [Example 104]
36.6 | 5.9 | CN[C@@H](C)C(=O)N[C@@H](CC(=O)O)C(=O)N1C[C@@H]2C[C@H]1C(=O)N[C@@H](Cc1ccc3ccccc3c1)C(=O)N[C@H](C(=O)O)Cc1ccc(cc1)C(=O)N[C@H]1C[C@@H](C(=O)N[C@@H](Cc3ccc4ccccc4c3)C(=O)N[C@H](C(=O)O)Cc3ccc(cc3)OC/C=C/CO2)N(C(=O)[C@@H](NC(=O)[C@H](C)NC)C(C)(C)C)C1 [Example 64]
2.1 | 0.6 | CN[C@@H](C)C(=O)N[C@H](C(=O)N1C[C@@H]2C[C@H]1C(=O)NC(Cc1ccc3ccccc3c1)C(=O)N[C@H](C(=O)NS(=O)(=O)CCCO)Cc1ccc(cc1)OC/C=C/C[C@H]1C[C@@H](C(=O)N[C@@H](Cc3ccc4ccccc4c3)C(=O)N[C@H](C(=O)O)Cc3ccc(cc3)OCc3cn2nn3)N(C(=O)[C@@H](NC(=O)[C@H](C)NC)C(C)(C)C)C1)C(C)(C)C (stereo partly drawn) [Example 94]
9.4 | 11.3 | CN[C@@H](C)C(=O)N[C@H](C(=O)N1C[C@@H]2C[C@H]1C(=O)N[C@@H](Cc1ccc3ccccc3c1)C(=O)N[C@H](C(=O)O)Cc1ccc(cc1)OC/C=C/CO[C@H]1C[C@@H](C(=O)N[C@@H](Cc3cccc(-c4ccc(CO)cc4)c3)C(=O)N[C@H](C(=O)NS(=O)(=O)C3CC3)Cc3ccc(cc3)OCc3cn2nn3)N(C(=O)[C@@H](NC(=O)[C@H](C)NC)C(C)(C)C)C1)C(C)(C)C [Example 117]
1.2 | 1.2 | CN[C@@H](C)C(=O)N[C@H](C(=O)N1CC[C@H]2OCc3cn(nn3)-c3ccc(cc3)C[C@@H](C(=O)O)NC(=O)[C@H](Cc3ccc4ccccc4c3)NC(=O)[C@@H]3C[C@@H](CN3C(=O)[C@@H](NC(=O)[C@H](C)NC)C(C)(C)C)OC/C=C/COc3ccc(cc3)C[C@@H](C(=O)O)NC(=O)[C@H](Cc3ccc4ccccc4c3)NC(=O)[C@H]21)C(C)(C)C [Example 12]
49.7 | 13.2 | CN[C@@H](C)C(=O)N[C@H](C(=O)N1C[C@@H]2C[C@H]1C(=O)N[C@@H](Cc1ccc3ccccc3c1)C(=O)N[C@H](C(=O)O)Cc1ccc(cc1)OC/C=C/CO[C@H]1C[C@@H](C(=O)N3Cc4ccccc4C[C@H]3C(=O)N[C@H](C(=O)NS(=O)(=O)C3CC3)Cc3ccc(cc3)OCc3cn2nn3)N(C(=O)[C@@H](NC(=O)[C@H](C)NC)C(C)(C)C)C1)C(C)(C)C [Example 105]
1.7 | 1.1 | CN[C@@H](C)C(=O)N[C@H](C(=O)N1C[C@@H]2C[C@H]1C(=O)N[C@@H](Cc1ccc3ccccc3c1)C(=O)N[C@H](C(=O)O)Cc1ccc(cc1)OC/C=C/C[C@H]1C[C@@H](C(=O)N[C@@H](Cc3ccc4ccccc4c3)C(=O)N[C@H](C(=O)NS(=O)(=O)C3CC3)Cc3ccc(cc3)OCc3cn2nn3)N(C(=O)[C@@H](NC(=O)[C@H](C)NC)C(C)(C)C)C1)C(C)(C)C [Example 86]
34.1 | 2.6 | CN[C@@H](C)C(=O)N[C@H](C(=O)N1C[C@@H]2C[C@H]1C(=O)N[C@@H](Cc1ccc3ccccc3c1)C(=O)N[C@H](C(=O)O)Cc1ccc(cc1)OC/C=C/CO[C@H]1C[C@@H](C(=O)N[C@@H](Cc3ccc4ccccc4c3)C(=O)N[C@H](C(=O)NS(=O)(=O)C3CC3)Cc3ccc(cc3)OCc3cn2nn3)N(C(=O)[C@H](NC(=O)[C@H](C)NC)[C@@H](C)O)C1)C(C)(C)C [Example 111]
67.2 | 2.9 | CN[C@@H](C)C(=O)N[C@H](C(=O)N1C[C@@H]2C[C@H]1C(=O)N[C@@H](C)C(=O)N[C@H](C(=O)NS(=O)(=O)C1CC1)Cc1ccc(cc1)OCc1cn(nn1)[C@H]1C[C@@H](C(=O)N[C@@H](Cc3ccc4ccccc4c3)C(=O)N[C@H](C(=O)O)Cc3ccc(cc3)OC/C=C/CO2)N(C(=O)[C@@H](NC(=O)[C@H](C)NC)C(C)(C)C)C1)C(C)(C)C [Example 103]

SMILES | IC50 (His-BIR3 (241-356, XIAP)) [nM] | IC50 [1] [nM]
CN[C@@H](C)C(=O)N[C@H](C(=O)N1C[C@@H]2C[C@H]1C(=O)N[C@@H](Cc1ccc3ccccc3c1)C(=O)N[C@H](C(=O)O)Cc1ccc(cc1)OCCCCO[C@H]1C[C@@H](C(=O)N[C@@H](Cc3ccc4ccccc4c3)C(=O)N[C@H](C(=O)NS(=O)(=O)c3ccccn3)Cc3ccc(cc3)OCc3cn2nn3)N(C(=O)[C@@H](NC(=O)[C@H](C)NC)C(C)(C)C)C1)C(C)(C)C [Example 125] | 3.7 | 2.7
CN[C@@H](C)C(=O)N[C@H](C(=O)N1C[C@@H]2C[C@H]1C(=O)N[C@@H](Cc1ccc3ccccc3c1)C(=O)N[C@H](C(=O)O)Cc1ccc(cc1)OCCCCO[C@H]1C[C@@H](C(=O)N[C@@H](Cc3ccc4ccccc4c3)C(=O)N[C@H](C(=O)NS(=O)(=O)C3CC3)Cc3ccc(cc3)OCc3cn2nn3)N(C(=O)[C@@H](NC(=O)[C@H](C)NC)C(C)(C)C)C1)C(C)(C)C [Example 120] | 42 | 8
CN[C@@H](C)C(=O)NC(C(=O)N1C[C@H]2C/C=C/COc3ccc(cc3)C[C@@H](c3n[nH]c(=O)o3)NC(=O)C(Cc3ccc4ccccc4c3)NC(=O)[C@@H]3C[C@@H](CN3C(=O)[C@@H](NC(=O)[C@H](C)NC)C(C)(C)C)n3cc(nn3)COc3ccc(cc3)C[C@@H](C(=O)O)NC(=O)[C@H](Cc3ccc4ccccc4c3)NC(=O)[C@@H]1C2)C(C)(C)C (stereo partly drawn) [Example 91] | 2 | 0.4
CNC(C)C(=O)NC(C(=O)N1CC2CC1C(=O)NC(Cc1ccc3ccccc3c1)C(=O)NC(C(=O)O)Cc1ccc(cc1)OCc1cn(nn1)C1CC(C(=O)NC(Cc3ccc4ccccc4c3)C(=O)NC(C(=O)O)Cc3ccc(cc3)OCC=CCO2)N(C(=O)C(NC(=O)C(C)NC)C(C)(C)C)C1)C(C)(C)C (stereo not drawn) [Example 4] | 4.1 | 0.7
CN[C@@H](C)C(=O)N[C@H](C(=O)N1C[C@@H]2C[C@H]1C(=O)N[C@@H](Cc1ccc3ccccc3c1)C(=O)N[C@H](C(=O)O)Cc1ccc(cc1)OCc1cn(nn1)[C@H]1C[C@@H](C(=O)N[C@@H](Cc3ccc4ccccc4c3)C(=O)N[C@H](C(=O)NS(=O)(=O)C3CC3)Cc3ccc(cc3)OCCCCO2)N(C(=O)[C@@H](NC(=O)[C@H](C)NC)C(C)(C)C)C1)C(C)(C)C [Example 123] | 7.8 | 5.4
